# Experiments:
# [1] = test system: Staphylococcus epidermidis; experiment: In vivo imaging of Staphylococcus epidermidis thigh infection (FMT2500); design: species or system SKH1-E female mice; conditions: 10^8 CFUs i.m. left thigh; 5 nM agent i.v. about 24 hours after inoculation; imaged one, two and three hours after agent injection; all time points
# Procedure: SKH1-E female mice, aged 6-8 weeks, were injected intramuscularly with 10^8 CFUs (colony forming units) of Staphylococcus epidermidis in the left thigh. Mice were given intravenous injections of 5 nM of bacterium targeting agent, compound A7, approximately 24 hours after the initial bacterial inoculation.
# Escherichia coli [2] = experiment: In vivo imaging of Escherichia coli thigh infection (FMT2500); design: species or system SKH1-E female mice; conditions: 10^5-10^8 CFUs i.m. left thigh; 5 nM agent i.v. about 24 hours after inoculation; imaged one hour after agent injection
# Procedure: SKH1-E female mice, aged 6-8 weeks, were injected intramuscularly in the left thigh with different concentrations of Escherichia coli at 10^5-10^8 CFUs. At approximately 24 hours after the initial bacterial inoculation, mice were given intravenous injections of 5 nM of bacterium targeting agent, compound A7.
# Escherichia coli [3] = experiment: In vitro binding of bacterium targeting agent to bacteria, flow cytometry; format: cell-based; conditions: 10 μM final in TES buffer, RT, 1 hour; FIG. 1A/1B
# Procedure: (§1) Bacteria were grown at 37° C. to an OD600=0.3-0.5 and centrifuged at 3500 rpm for 4 minutes before the subsequent pellets were re-suspended in TES buffer. Bacteria with or without targeting agent were grown under the same conditions. Bacterial targeting agents, compound A7, were incubated with bacterial pellets at a concentration of 10 μM final in TES buffer at RT for 1 hour. […] In this experiment, fluorescence is only associated with bacteria in the presence of the bacterium targeting agent described herein.
# [4] = test system: Staphylococcus epidermidis; experiment: as above; format: cell-based; conditions: 10 μM final in TES buffer, RT, 1 hour; FIG. 1A/1B
# Procedure: as §1
smiles,measurement,setting,value
"CN1/C(=C/C=C(/C=C/C2=[N+](CCCS(=O)(=O)O)c3ccccc3C2(C)C)c2ccc(C(=O)NCCCCCC(=O)NCC(=O)Nc3ccc(CC[N+]45CC[N+](C)(CC4)CC5)cc3)cn2)C(C)(C)c2ccccc21 [Compound A7, 3-(3,3-dimethyl-2-((1E,3Z,5E)-3-(5-((6-((2-((4-(2-(4-methyl-1,4-diazabicyclo[2.2.2]octan-1,4-diium-1-yl)ethyl)phenyl)amino)-2-oxoethyl)amino)-6-oxohexyl)carbamoyl)pyridin-2-yl)-5-(1,3,3-trimethylindolin-2-ylidene)penta-1,3-dien-1-yl)-3H-indol-1-ium-1-yl)propane-1-sulfonate di-acetate]","differentiation between infected and uninfected areas (fluorescence, tomographic imaging)",[1],Statistically significant differentiation between infected and uninfected areas
same,uptake of the agent at the site of infection (tomographic images),Escherichia coli [2],clear uptake of the bacterial targeting agent at the site of the infection
same,in vitro binding to bacteria (fluorescence by flow cytometry),Escherichia coli [3],in vitro binding
same,in vitro binding to bacteria (fluorescence by flow cytometry),[4],in vitro binding
